Results reported in ChEMBL document CHEMBL1777801, “3-Oxo-2-piperazinyl acetamides as potent bradykinin B1 receptor antagonists for the treatment of pain and inflammation” (Bioorg Med Chem Lett, 2011).

Columns and labels:
[1] = Half life in cynomolgus monkey at 1 mg/kg, iv; type: ADME, organism-based, Macaca fascicularis; set-up: dose 1 mg/kg, route intravenous; conditions: in vivo
[2] = Volume of distribution at steady state in cynomolgus monkey at 1 mg/kg, iv; type: ADME, organism-based, Macaca fascicularis; set-up: dose 1 mg/kg, route intravenous; conditions: in vivo, read-out: Vdss
[3] = Half life in rhesus monkey at 1 mg/kg, iv; type: ADME, organism-based, Macaca mulatta; set-up: dose 1 mg/kg, route intravenous; conditions: in vivo
[4] = Clearance in rabbit at 1 mg/kg, iv; type: ADME, organism-based, Oryctolagus cuniculus; set-up: dose 1 mg/kg, route intravenous; conditions: in vivo
[5] = Oral bioavailability in rhesus monkey at 5 mg/kg; type: ADME, organism-based, Macaca mulatta; conditions: in vivo
[6] = Oral bioavailability in mouse at 10 mg/kg; type: ADME, organism-based; conditions: in vivo
[7] = Volume of distribution at steady state in mouse at 1 mg/kg, iv; type: ADME, organism-based; set-up: dose 1 mg/kg, route intravenous; conditions: in vivo, read-out: Vdss
[8] = Oral bioavailability in cynomolgus monkey at 5 mg/kg; type: ADME, organism-based, Macaca fascicularis; conditions: in vivo
[9] = Clearance in mouse at 1 mg/kg, iv; type: ADME, organism-based; set-up: dose 1 mg/kg, route intravenous; conditions: in vivo
[10] = Volume of distribution at steady state in rabbit at 1 mg/kg, iv; type: ADME, organism-based, Oryctolagus cuniculus; set-up: dose 1 mg/kg, route intravenous; conditions: in vivo, read-out: Vdss
[11] = Half life in mouse at 1 mg/kg, iv; type: ADME, organism-based; set-up: dose 1 mg/kg, route intravenous; conditions: in vivo
[12] = in vivo; conditions: Sprague-Dawley, rat, po, 10 mg/kg
[13] = in vivo; conditions: Sprague-Dawley, rat, iv, 1 mg/kg
[14] = Clearance in dog at 1 mg/kg, iv; type: ADME, organism-based, Canis lupus familiaris; set-up: dose 1 mg/kg, route intravenous; conditions: in vivo
[15] = Half life in rabbit at 1 mg/kg, iv; type: ADME, organism-based, Oryctolagus cuniculus; set-up: dose 1 mg/kg, route intravenous; conditions: in vivo
[16] = in vivo; conditions: Sprague-Dawley, rat, iv, 1 mg/kg; remark: listed apart in the source
[17] = Volume of distribution at steady state in rhesus monkey at 1 mg/kg, iv; type: ADME, organism-based, Macaca mulatta; set-up: dose 1 mg/kg, route intravenous; conditions: in vivo, read-out: Vdss
[18] = Half life in Sprague-Dawley rat at 1 mg/kg, iv administered as bolus dose; type: ADME, organism-based; set-up: dose 1 mg/kg, route intravenous; conditions: in vivo
[19] = Clearance in rhesus monkey at 1 mg/kg, iv; type: ADME, organism-based, Macaca mulatta; set-up: dose 1 mg/kg, route intravenous; conditions: in vivo
[20] = Clearance in cynomolgus monkey at 1 mg/kg, iv; type: ADME, organism-based, Macaca fascicularis; set-up: dose 1 mg/kg, route intravenous; conditions: in vivo
[21] = Oral bioavailability in rabbit at 5 mg/kg; type: ADME, organism-based, Oryctolagus cuniculus; conditions: in vivo
[22] = Volume of distribution at steady state in dog at 1 mg/kg, iv; type: ADME, organism-based, Canis lupus familiaris; set-up: dose 1 mg/kg, route intravenous; conditions: in vivo, read-out: Vdss
[23] = Oral bioavailability in dog at 3 mg/kg; type: ADME, organism-based, Canis lupus familiaris; conditions: in vivo
[24] = Half life in dog at 1 mg/kg, iv; type: ADME, organism-based, Canis lupus familiaris; set-up: dose 1 mg/kg, route intravenous; conditions: in vivo

Cc1ccc(S(=O)(=O)N2CCNC(=O)[C@H]2CC(=O)N[C@@H]2CCCc3cc(CN4CCCCC4)ccc32)cc1
half-life [1]: 5.6 h
Vd [2]: 1.6 L/kg
half-life [3]: 3.2 h
clearance [4]: 53.3 mL/min/kg
bioavailability [5]: 23%
bioavailability [6]: 6%
Vd [7]: 6 L/kg
bioavailability [8]: 17%
clearance [9]: 133 mL/min/kg
Vd [10]: 6.4 L/kg
half-life [11]: 1.4 h
bioavailability [12]: 6%
clearance [13]: 123 mL/min/kg
clearance [14]: 63.3 mL/min/kg
half-life [15]: 2.4 h
Vd [16]: 9.3 L/kg
Vd [17]: 5.9 L/kg
half-life [18]: 4.8 h
clearance [19]: 30 mL/min/kg
clearance [20]: 10 mL/min/kg
bioavailability [21]: 5%
Vd [22]: 16.2 L/kg
bioavailability [23]: 24%
half-life [24]: 4.6 h

O=C(C[C@@H]1C(=O)NCCN1S(=O)(=O)c1ccccc1)N[C@@H]1CCCc2cc(CN3CCCCC3)ccc21
clearance [13]: 90 mL/min/kg
Vd [16]: 9.9 L/kg

O=C(C[C@@H]1C(=O)NCCN1S(=O)(=O)c1ccc(Cl)cc1)N[C@@H]1CCCc2cc(CN3CCCCC3)ccc21
bioavailability [12]: 19%
clearance [13]: 112 mL/min/kg
Vd [16]: 11.9 L/kg

Cc1ccc(S(=O)(=O)N2CCNC(=O)[C@H]2CC(=O)N[C@@H]2CCCc3cc(CNC(C)(C)C)ccc32)cc1
bioavailability [12]: 0.3%
clearance [13]: 56.7 mL/min/kg
Vd [16]: 8.34 L/kg

Cc1ccc(S(=O)(=O)N2CCNC(=O)[C@H]2CC(=O)N[C@@H]2CCCc3cc(CNCC(C)(C)C)ccc32)cc1
bioavailability [12]: 16%
clearance [13]: 30 mL/min/kg
Vd [16]: 3.4 L/kg
